Data: ChEMBL document CHEMBL1147645, “Design and synthesis of 2,3,4,9-tetrahydro-1H-carbazole and 1,2,3,4-tetrahydro-cyclopenta[b]indole derivatives as non-nucleoside inhibitors of hepatitis C virus NS5B RNA-dependent RNA polymerase” (Bioorg Med Chem Lett, 2006)

How the values were obtained:
[1] = target: RNA-directed RNA polymerase (Hepacivirus hominis, UniProt O39930); experiment: Inhibition of HCV 1b BK NS5B RNA polymerase; set-up: species or system Hepatitis C virus (isolate BK)
Huh-7 = experiment: Cytotoxicity against Huh7 cells by MTS assay; format: functional, cell-based; settings: Homo sapiens
[2] = Permeability at pH 7.4 by PAMPA assay; format: ADME; settings: read-out: permeability

Chain of RNA-directed RNA polymerase (O39930 whole entry): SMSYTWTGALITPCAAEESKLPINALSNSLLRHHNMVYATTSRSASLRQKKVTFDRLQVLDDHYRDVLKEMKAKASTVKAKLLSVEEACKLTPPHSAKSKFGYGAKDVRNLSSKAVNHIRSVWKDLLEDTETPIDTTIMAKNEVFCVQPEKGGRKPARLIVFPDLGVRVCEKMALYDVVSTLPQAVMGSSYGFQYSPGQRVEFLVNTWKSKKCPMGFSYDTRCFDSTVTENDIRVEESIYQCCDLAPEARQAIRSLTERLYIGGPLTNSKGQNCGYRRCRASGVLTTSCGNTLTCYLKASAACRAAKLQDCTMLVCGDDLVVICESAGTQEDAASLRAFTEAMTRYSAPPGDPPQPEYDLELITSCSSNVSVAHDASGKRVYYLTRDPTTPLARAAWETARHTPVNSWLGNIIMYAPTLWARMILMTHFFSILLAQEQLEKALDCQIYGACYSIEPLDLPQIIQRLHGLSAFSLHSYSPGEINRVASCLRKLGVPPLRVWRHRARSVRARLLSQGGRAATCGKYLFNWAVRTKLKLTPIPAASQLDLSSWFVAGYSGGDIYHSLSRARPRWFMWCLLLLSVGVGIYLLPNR

Row | Structure (SMILES) | IC50 [1] | IC50 (Huh-7) | Papp [2]
1 | CCCC1(CC(=O)O)CCCc2c1[nH]c1c(C#N)ccc(C#N)c21 (centres undefined) | 2.3 µM |  | 
2 | CCCC1(CC(=O)O)CCCc2c1[nH]c1c(F)c(F)ccc21 (centres undefined) | > 33 µM |  | 
3 | CCCC1(CC(=O)O)CCCc2c1[nH]c1cc(F)cc(F)c21 (centres undefined) | 30 µM |  | 
4 | CCCC1(C(=O)O)CCc2c1[nH]c1c(C)cc(F)c(C#N)c21 (centres undefined) | 1.8 µM |  | 
5 | CCCCC1(C(=O)O)CCc2c1[nH]c1c(C)ccc(C#N)c21 (centres undefined) | 4.6 µM |  | 
6 | CCCC1(CC(=O)O)OCCc2c1[nH]c1c(C)ccc(C#N)c21 (centres undefined) | 0.33 µM |  | 
7 | CCCC1(CC(=O)O)CCCc2c1[nH]c1ccccc21 (centres undefined) | > 33 µM |  | 
8 | CCCC1(CC(=O)O)CCCc2c1[nH]c1c(C)ccc(C#N)c21 (centres undefined) | 2.1 µM |  | 
9 | C=CCC1(C(=O)O)CCc2c1[nH]c1c(C)cc(F)c(C#N)c21 (centres undefined) | 6.3 µM |  | 
10 | CCCC1(C(=O)O)CCc2c1[nH]c1c(F)ccc(C#N)c21 (centres undefined) | 8.1 µM |  | 
11 | CCCCC1(C(=O)O)CCc2c1[nH]c1c(C)cc(F)c(C#N)c21 (centres undefined) | 1.5 µM |  | 
12 | CCCCC1(C(=O)O)CCc2c1[nH]c1c(Cl)ccc(Cl)c21 (centres undefined) | 1.9 µM |  | 
13 | C=CCC1(C(=O)O)CCc2c1[nH]c1c(Cl)ccc(Cl)c21 (centres undefined) | 1.2 µM |  | 
14 | CCCC1(C(=O)O)CCCc2c1[nH]c1c(C)ccc(C#N)c21 (centres undefined) | 15 µM |  | 
15 | CCCC1(CC(=O)O)CCCc2c1[nH]c1ccc(Cl)cc21 (centres undefined) | > 33 µM |  | 
16 | CCCC1(CC(=O)O)CCCc2c1[nH]c1c(Cl)cc(Br)cc21 (centres undefined) | > 33 µM |  | 
17 | CCCC1(C(=O)O)CCc2c1[nH]c1c(C)ccc(C#N)c21 (centres undefined) | 4.7 µM |  | 
18 | CCCC1(C(=O)O)CCCc2c1[nH]c1c(Cl)ccc(C(F)(F)F)c21 (centres undefined) | 5.8 µM |  | 
19 | CCCC1(C(=O)O)CCCc2c1[nH]c1c(F)ccc(C#N)c21 (centres undefined) | 10 µM |  | 
20 | CCCC1(C(=O)O)CCCc2c1[nH]c1c(Cl)ccc(Cl)c21 (centres undefined) | 3.2 µM |  | 
21 | CCCC1(CC(=O)O)CCCc2c1[nH]c1c(F)ccc(F)c21 (centres undefined) | > 33 µM |  | 
22 | C=CCC1(C(=O)O)CCc2c1[nH]c1c(C)ccc(C#N)c21 (centres undefined) | 11 µM |  | 
23 | CCCC1(CC(=O)O)CCCc2c1[nH]c1c(F)ccc(C#N)c21 (centres undefined) | 2 µM |  | 
24 | C=CCC1(C(=O)O)CCc2c1[nH]c1c(F)ccc(C#N)c21 (centres undefined) | 14.5 µM |  | 
25 | CCCC1(CC(=O)O)CCCc2c1[nH]c1c(C(N)=O)ccc(C#N)c21 (centres undefined) | > 33 µM |  | 
26 | CCCCC1(C(=O)O)CCc2c1[nH]c1c(F)ccc(C#N)c21 (centres undefined) | 5.4 µM |  | 
27 | CCCC1(C(=O)O)CCc2c1[nH]c1c(Cl)ccc(Cl)c21 (centres undefined) | 0.55 µM | 43 µM | 6.48 ×10⁻⁶ cm/s
